Test results: patent US9776997B2, “3-aryl-substituted imidazo[1,2-A]pyridines and their use” (Bayer Pharma Aktiengesellschaft, priority 2013, dated 2017)
Where a name gives a salt, the structure may show the parent alone.

Each molecule was assayed against T1, recombinant guanylate cyclase reporter cell line (Rattus norvegicus, UniProt P19686+P20595) (assay: Effect on a recombinant guanylate cyclase reporter cell line). Settings: MEC = minimum effective concentration; in some cases mean values for individual determinations.
T1 construct: expressed in transfected cells; host or cells: recombinant reporter cell line
T1 sequence (P19686 1-690): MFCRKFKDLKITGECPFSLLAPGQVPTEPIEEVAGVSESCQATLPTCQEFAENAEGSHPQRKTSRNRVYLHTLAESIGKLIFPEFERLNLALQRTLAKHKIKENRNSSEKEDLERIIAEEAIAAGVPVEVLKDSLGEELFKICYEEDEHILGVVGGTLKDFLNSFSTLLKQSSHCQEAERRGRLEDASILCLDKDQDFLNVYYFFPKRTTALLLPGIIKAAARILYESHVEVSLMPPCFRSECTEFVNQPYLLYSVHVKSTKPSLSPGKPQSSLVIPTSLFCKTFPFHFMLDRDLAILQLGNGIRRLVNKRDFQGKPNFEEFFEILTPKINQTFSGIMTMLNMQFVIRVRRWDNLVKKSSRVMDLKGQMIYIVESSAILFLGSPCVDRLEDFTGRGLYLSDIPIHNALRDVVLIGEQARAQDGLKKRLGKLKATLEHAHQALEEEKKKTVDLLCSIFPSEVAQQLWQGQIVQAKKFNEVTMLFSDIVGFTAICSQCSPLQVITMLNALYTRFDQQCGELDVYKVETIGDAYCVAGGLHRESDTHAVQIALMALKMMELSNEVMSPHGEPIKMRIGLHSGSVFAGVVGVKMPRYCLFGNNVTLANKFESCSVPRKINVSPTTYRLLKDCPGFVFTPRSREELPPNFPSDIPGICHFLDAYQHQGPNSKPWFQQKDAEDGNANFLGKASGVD
T1 sequence (P20595 1-619): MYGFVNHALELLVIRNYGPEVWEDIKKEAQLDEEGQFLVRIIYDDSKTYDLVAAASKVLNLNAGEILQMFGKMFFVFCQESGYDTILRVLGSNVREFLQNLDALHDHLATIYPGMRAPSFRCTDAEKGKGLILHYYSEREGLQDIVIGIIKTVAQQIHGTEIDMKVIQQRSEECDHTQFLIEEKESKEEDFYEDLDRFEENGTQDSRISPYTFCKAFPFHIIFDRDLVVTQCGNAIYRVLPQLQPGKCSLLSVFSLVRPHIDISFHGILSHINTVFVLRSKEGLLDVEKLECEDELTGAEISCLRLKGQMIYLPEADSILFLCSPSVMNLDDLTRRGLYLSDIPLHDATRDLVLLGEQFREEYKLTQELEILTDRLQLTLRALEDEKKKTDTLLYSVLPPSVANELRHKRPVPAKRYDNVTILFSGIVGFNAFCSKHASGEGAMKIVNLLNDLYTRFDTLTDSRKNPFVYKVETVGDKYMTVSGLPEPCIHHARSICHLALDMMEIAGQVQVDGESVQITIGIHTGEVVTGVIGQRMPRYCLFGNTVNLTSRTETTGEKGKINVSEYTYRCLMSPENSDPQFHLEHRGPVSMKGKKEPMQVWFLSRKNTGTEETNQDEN
Format: cell-based
Method: B-2. Effect on a Recombinant Guanylate Cyclase Reporter Cell Line
The cellular effect of the inventive compounds is determined using a recombinant guanylate cyclase reporter cell line, as described in F. Wunder et al., Anal. Biochem. 339, 104-112 (2005).
Representative MEC values (MEC=minimum effective concentration) for the inventive compounds are shown in the table below (in some cases as mean values for individual determinations): […]

Compound | MEC [µM]
CCN(C)Cc1ccc(OC)c(-c2c(C)nc3c(OCc4c(F)cccc4F)cccn23)c1 [Example 28, N-(3-{8-[(2,6-difluorobenzyl)oxy]-2-methylimidazo[1,2-a]pyridin-3-yl}-4-methoxybenzyl)-N-methylethanamine] | 1.0
Cc1nc2c(OCc3c(F)cccc3F)cccn2c1-c1ccncc1 [Example 29, 8-[(2,6-difluorobenzyl)oxy]-2-methyl-3-(pyridin-4-yl)imidazo[1,2-a]pyridine] | 1.0
Cc1ccc(-c2c(C)nc3c(OCc4c(F)cccc4F)cccn23)cc1 [Example 30, 8-[(2,6-difluorobenzyl)oxy]-2-methyl-3-(4-methylphenyl)imidazo[1,2-a]pyridine] | 3.0
Cc1nc2c(OCc3c(F)cccc3F)cccn2c1-c1ccc(Oc2ccccc2)cc1 [Example 31, 8-[(2,6-difluorobenzyl)oxy]-2-methyl-3-(4-phenoxyphenyl)imidazo[1,2-a]pyridine] | 3.0
C=Cc1ccc(-c2c(C)nc3c(OCc4c(F)cccc4F)cccn23)cc1 [Example 32, 8-[(2,6-difluorobenzyl)oxy]-2-methyl-3-(4-vinylphenyl)imidazo[1,2-a]pyridine] | 3.0
CSc1cccc(-c2c(C)nc3c(OCc4c(F)cccc4F)cccn23)c1 [Example 33, 8-[(2,6-difluorobenzyl)oxy]-2-methyl-3-[3-(methylsulphanyl)phenyl]imidazo[1,2-a]pyridine] | 3.0
Cc1nc2c(OCc3c(F)cccc3F)cccn2c1-c1cccc(Cl)c1 [Example 34, 3-(3-chlorophenyl)-8-[(2,6-difluorobenzyl)oxy]-2-methylimidazo[1,2-a]pyridine] | 3.0
Cc1nc2c(OCc3c(F)cccc3F)cccn2c1-c1csc2ccccc12 [Example 35, 3-(1-benzothiophen-3-yl)-8-[(2,6-difluorobenzyl)oxy]-2-methylimidazo[1,2-a]pyridine] | 3.0
Cc1nc2c(OCc3c(F)cccc3F)cccn2c1-c1ccc2c(ccn2C)c1 [Example 36, 8-[(2,6-difluorobenzyl)oxy]-2-methyl-3-(1-methyl-1H-indol-5-yl)imidazo[1,2-a]pyridine] | 3.0
Cc1nc2c(OCc3c(F)cccc3F)cccn2c1-c1ccc2c(c1)OCCO2 [Example 37, 8-[(2,6-difluorobenzyl)oxy]-3-(2,3-dihydro-1,4-benzodioxin-6-yl)-2-methylimidazo[1,2-a]pyridine] | 3.0
Cc1nc2c(OCc3c(F)cccc3F)cccn2c1-c1cccc(N2CCCCC2)c1 [Example 38, 8-[(2,6-difluorobenzyl)oxy]-2-methyl-3-[3-(piperidin-1-yl)phenyl]imidazo[1,2-a]pyridine] | 3.0
Cc1nc2c(OCc3c(F)cccc3F)cccn2c1-c1ccc(CN2CCOCC2)c(F)c1 [Example 39, 8-[(2,6-difluorobenzyl)oxy]-3-[3-fluoro-4-(morpholin-4-ylmethyl)phenyl]-2-methylimidazo[1,2-a]pyridine] | 3.0
Cc1nc2c(OCc3c(F)cccc3F)cccn2c1-c1ccc(C(N)=O)cc1 [Example 40, 4-{8-[(2,6-difluorobenzyl)oxy]-2-methylimidazo[1,2-a]pyridin-3-yl}benzamide] | 3.0
COc1ccc(-c2c(C)nc3c(OCc4c(F)cccc4F)cccn23)cc1CN1CCOCC1 [Example 41, 8-[(2,6-difluorobenzyl)oxy]-3-[4-methoxy-3-(morpholin-4-ylmethyl)phenyl]-2-methylimidazo[1,2-a]pyridine] | 3.0
Cc1nc2c(OCc3c(F)cccc3F)cccn2c1-c1cccc(CN2CCCCC2)c1 [Example 42, 8-[(2,6-difluorobenzyl)oxy]-2-methyl-3-[3-(piperidin-1-ylmethyl)phenyl]imidazo[1,2-a]pyridine] | 3.0
CCN(CC)Cc1ccc(-c2c(C)nc3c(OCc4c(F)cccc4F)cccn23)cc1F [Example 43, N-(4-{8-[(2,6-difluorobenzyl)oxy]-2-methylimidazo[1,2-a]pyridin-3-yl}-2-fluorobenzyl)-N-ethylethanamine] | 3.0
Cc1nc2c(OCc3c(F)cccc3F)cccn2c1-c1ccc(F)c(CN2CCOCC2)c1 [Example 44, 8-[(2,6-difluorobenzyl)oxy]-3-[4-fluoro-3-(morpholin-4-ylmethyl)phenyl]-2-methylimidazo[1,2-a]pyridine] | 3.0

Now from value to molecule:

MEC [µM] | Compound
0.1 | Cc1nc2c(OCc3c(F)cccc3F)cccn2c1-c1cn[nH]c1 [Example 45, 8-[(2,6-difluorobenzyl)oxy]-2-methyl-3-(1H-pyrazol-4-yl)imidazo[1,2-a]pyridine]
0.2 | Cc1nc2c(OCc3c(F)cccc3F)cccn2c1-c1cccc(S(C)(=O)=O)c1 [Example 46]
0.3 | Cc1nc2c(OCc3c(F)cccc3F)cccn2c1-c1ccn[nH]1 [Example 47]
0.2 | Cc1nc2c(OCc3c(F)cccc3F)cccn2c1-c1cccc(NS(C)(=O)=O)c1 [Example 48]
0.3 | CCn1cc(-c2c(C)nc3c(OCc4c(F)cccc4F)cccn23)cn1 [Example 49]
0.3 | Cc1nc2c(OCc3c(F)cccc3F)cccn2c1-c1cnn(C)c1 [Example 50]
0.3 | Cc1nc2c(OCc3c(F)cccc3F)cccn2c1-c1ccc2cn[nH]c2c1 [Example 51]
0.3 | Cc1nc2c(OCc3c(F)cccc3F)cccn2c1-c1cnn(C(C)C)c1 [Example 52]
1.0 | Cc1nc2c(OCc3c(F)cccc3F)cccn2c1-c1cccc2[nH]ncc12 [Example 53]
1.0 | Cc1nc2c(OCc3c(F)cccc3F)cccn2c1-c1ccc2[nH]ncc2c1 [Example 54]
1.0 | Cc1nn(C)cc1-c1c(C)nc2c(OCc3c(F)cccc3F)cccn12 [Example 55]
3.0 | Cc1nc2c(OCc3c(F)cccc3F)cccn2c1-c1cnn(C)c1C [Example 56]
1.0 | CCNc1nnc(-c2c(C)nc3c(OCc4c(F)cccc4F)cccn23)o1 [Example 57, 5-{8-[(2,6-Difluorobenzyl)oxy]-2-methylimidazo[1,2-a]pyridin-3-yl}-N-ethyl-1,3,4-oxadiazole-2-amine]
3.0 | Cc1nc2c(OCc3c(F)cccc3F)cccn2c1-c1nnc(N)o1 [Example 58, 5-{8-[(2,6-Difluorobenzyl)oxy]-2-methylimidazo[1,2-a]pyridin-3-yl}-1,3,4-oxadiazole-2-amine]
1.0 | Cc1nc2c(OCc3c(F)cccc3F)cccn2c1-c1ccnc(-c2ccc(F)cc2)c1 [Example 59, 8-[(2,6-Difluorobenzyl)oxy]-3-[2-(4-fluorophenyl)pyridin-4-yl]-2-methylimidazo[1,2-a]pyridine]
3.0 | Cc1nc2c(OCc3c(F)cccc3F)cccn2c1-c1cnccn1 [Example 60, 8-[(2,6-Difluorobenzyl)oxy]-2-methyl-3-(pyrazin-2-yl)imidazo[1,2-a]pyridine]
3.0 | CCCCc1coc(-c2c(C)nc3c(OCc4c(F)cccc4F)cc(Cl)cn23)n1 [Example 61, 3-(4-Butyl-1,3-oxazol-2-yl)-6-chloro-8-[(2,6-difluorobenzyl)oxy]-2-methylimidazo[1,2-a]pyridine trifluoroacetate]
3.0 | Cc1nc2c(OCC3CCCCC3)cccn2c1-c1nnc(-c2ncccn2)o1 [Example 62, 8-(Cyclohexylmethoxy)-2-methyl-3-[5-(pyrimidin-2-yl)-1,3,4-oxadiazol-2-yl]imidazo[1,2-a]pyridine]
3.0 | Cc1nc2c(OCC3CCCCC3)cccn2c1-c1nnc(-c2cccnc2)o1 [Example 64]
3.0 | Cc1nc2c(OCC3CCCCC3)cccn2c1-c1nnc(C(C)O)o1 (stereo not drawn) [Example 65]
3.0 | CCOCc1nnc(-c2c(C)nc3c(OCC4CCCCC4)cccn23)o1 [Example 66]
3.0 | COCc1nnc(-c2c(C)nc3c(OCC4CCCCC4)cccn23)o1 [Example 67]
